According to patent US20100183600A1, “RAF Inhibitors and Their Uses” (ARQULE, INC., priority 2008, published 2010):

Tests used:
Experiment in all cases: Cell growth inhibition assay (MTS)
Type in all cases: cell-based
BDCM = conditions: Homo sapiens, lymphoblast
In short: (§1)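 Seeding: 1-5×10^3 cells per well, 24 h at 37° C. Treatment: test compounds for 72 hours in DMEM-based medium. Detection: MTS with phenazine methosulfate for 4 hr, absorbance at 492 nm, with IC50 taken at 50% signal reduction.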

NCI-H520 = conditions: Homo sapiens; NCI-H520, squamous cell lung carcinoma
In short: as §1

HT29 = conditions: Homo sapiens, HT-29; HT29, colorectal carcinoma
In short: as §1

NCI-H441 = conditions: Homo sapiens; NCI-H441, lung papillary adenocarcinoma
In short: as §1

KG-1 = conditions: Homo sapiens; KG-1, AML
In short: as §1

NCI-H358 = conditions: Homo sapiens; NCI-H358, non-small cell lung cancer, brancioalveolar carcinoma
In short: as §1

ASPC-1 = conditions: Homo sapiens, ASPC1; ASPC-1, pancreas
In short: as §1

KG-1a = conditions: Homo sapiens, AML
In short: as §1

MCF-7 = conditions: Homo sapiens, MCF7; MCF-7, breast adenocarcinoma
In short: as §1

786-O = conditions: Homo sapiens, 786-0, kidney
In short: as §1

LS411N = conditions: Homo sapiens, LS-411N, colorectal carcinoma
In short: as §1

HEP-G2 = conditions: Homo sapiens, HepG2; HEP-G2, hepatocellular carcinoma
In short: as §1

CALU-6 = conditions: Homo sapiens; CALU-6, lung
In short: as §1

AN3CA = conditions: Homo sapiens, AN3-CA, endometrial
In short: as §1

HT-1080 = conditions: Homo sapiens; HT-1080, fibrosarcoma
In short: as §1

NCI-H1993 = conditions: Homo sapiens; NCI-H1993, lung adenocarcinoma
In short: as §1

WIDR = conditions: Homo sapiens, colorectal adenocarcinoma
In short: as §1

SW480 = conditions: Homo sapiens; SW480, colon
In short: as §1

DU145 = conditions: Homo sapiens, DU-145; DU145, prostate
In short: as §1

LOVO = conditions: Homo sapiens, colorectal carcinoma
In short: as §1

HEP-3B = conditions: Homo sapiens, Hep3B, liver
In short: as §1

MDAMB-231 = conditions: Homo sapiens, MDA-MB-231; MDAMB-231, breast adenocarcinoma
In short: as §1

NCI-H460 = conditions: Homo sapiens; NCI-H460, large cell lung carcinoma
In short: as §1

LS174T = conditions: Homo sapiens, colorectal carcinoma
In short: as §1

PLC/PRF/5 = conditions: Homo sapiens; PLC/PRF/5, liver
In short: as §1

SNU-16 = conditions: Homo sapiens; SNU-16, gastric Carcinoma
In short: as §1

CC5292 = conditions: Homo sapiens; CC5292, MiT
In short: as §1

U937 = conditions: Homo sapiens, U-937; U937, monocyte histocytic lymphoma
In short: as §1

RT112 = conditions: RT-112; RT112, human urinary bladder cell carcinoma
In short: as §1

NCI-H661 = conditions: Homo sapiens; NCI-H661, large cell lung carcinoma
In short: as §1

SW780 = conditions: Homo sapiens; SW780, bladder
In short: as §1

K562 = conditions: Homo sapiens; K562, CML
In short: as §1

SKMES-1 = conditions: Homo sapiens, SK-MES-1; SKMES-1, squamous cell carcinoma
In short: as §1

THP-1 = conditions: Homo sapiens; THP-1, acute monocytic leukemia
In short: as §1

SNU475 = conditions: Homo sapiens, SNU-475; SNU475, liver
In short: as §1

Work on `Cn1ccc(S(=O)(=O)N2CCC[C@@H](Nc3nccc(-c4c(-c5cccc(OCOP(=O)(O)O)c5)nc5occn45)n3)C2)n1` [Compound 19, (R)-(3-(5-(2-(1-(1-methyl-1H-pyrazol-3-ylsulfonyl)piperidin-3-ylamino)pyrimidin-4-yl)imidazo[2,1-b]oxazol-6-yl)phenoxy)methyl dihydrogen phosphate] yielded a GI50 (BDCM) of 32.7 µM, a GI50 (NCI-H520) of 20.2 µM and a GI50 (HT29) of 5.03 µM. The GI50 (NCI-H441) was 17.8 µM, the GI50 (KG-1) was 30.8 µM and the GI50 (NCI-H358) was 7.5 µM. It also gave a GI50 (ASPC-1) of 6.33 µM, a GI50 (KG-1a) of 11.5 µM and a GI50 (MCF-7) of 12.5 µM. It also gave a GI50 (786-O) of 18.2 µM, a GI50 (LS411N) of 0.31 µM and a GI50 (HEP-G2) of 1.38 µM. It also gave a GI50 (CALU-6) of 2.97 µM, a GI50 (AN3CA) of 20.1 µM and a GI50 (HT-1080) of 26.8 µM. For the same compound, the GI50 (NCI-H1993) was 26.2 µM, the GI50 (WIDR) was 20.2 µM and the GI50 (SW480) was 8.27 µM. For the same compound, the GI50 (DU145) was 9.62 µM, the GI50 (LOVO) was 2.17 µM and the GI50 (HEP-3B) was 3.16 µM. The GI50 (MDAMB-231) was 28.2 µM, the GI50 (NCI-H460) was 19.3 µM and the GI50 (LS174T) was 5.9 µM. It also gave a GI50 (PLC/PRF/5) of 13.6 µM, a GI50 (SNU-16) of 15.7 µM and a GI50 (CC5292) of 8.2 µM. It also gave a GI50 (U937) of 20.2 µM, a GI50 (RT112) of 1.92 µM and a GI50 (NCI-H661) of 16.2 µM. For the same compound, the GI50 (SW780) was 9.1 µM, the GI50 (K562) was 9.86 µM and the GI50 (SKMES-1) was 9.02 µM. The GI50 (THP-1) was 10.3 µM and the GI50 (SNU475) was 29.1 µM.
